Where two headings read alike, the source gives them in different places.
Experiment: KH1 (24) intravenous PK/PD study: blood and brain levels, observation
Type: in vivo, female Balb/c mice
Protocol: The intravenous formulation for KH1 (24) was prepared by dissolving the compound in DMSO. This was then diluted with PEG400, followed by dropwise addition of sterile water to form a complete solution. The resulting formulation consisted of 5% DMSO, 40% PEG400, and 55% water, and contained KH1 (24) at a concentration of 1.0 mg/mL.
For the PK/PD study for KH1 (24), three female Balb/c mice were given a bolus intravenous injection at a dose level of 5 mg/kg (5 mL/kg). Animals were observed regularly after dose administration. At 4 h after the administration of KH1 (24), all animals were placed under terminal anaesthesia with isoflurane. Blood was collected via cardiac puncture and the brain and liver were removed. Two aliquots of 10 µL blood were each diluted into 90 µL of Milli-Q ultrapure water. All diluted blood samples were stored at −20 °C prior to bioanalysis. A portion of the brain was stored at −20 °C awaiting bioanalysis, while the remaining brain and liver tissues were snap-frozen in liquid nitrogen and stored at −80 °C awaiting biological investigation. The concentration of KH1 (24) in whole blood and brain tissue was determined via UPLC-MS/MS.
Blood samples (10 µL) from study mice were diluted 1× with 90 µL of water immediately when the sample was taken. All calibration, quality control, blanks and double blank samples (all 100 µL volume) were mixed (vortexed) with 300 µL of LCMS grade acetonitrile to precipitate proteins.
For study samples, a volume (30 µL) was mixed (vortexed) with a volume (90 µL) of acetonitrile to precipitate proteins. After protein precipitation, all samples were centrifuged to pellet the proteins. Study samples in Micronics tubes were centrifuged using a Beckman Coutler Allegra C-12R Centrifuge for 10 min at 3750 rpm. All other samples in Eppendorf tubes were centrifuged using a Sigma SciQuip 1–14 centrifuge for 10 min (14,800 rpm/16,163 × g). Supernatant from study samples (80 µL) and calibration samples, QCs, blanks, and double blanks (200 µL) were then transferred to HPLC glass vials containing Milli-Q water (40 µL or 100 µL, respectively), ready for LCMS analysis.

Structure (SMILES): Cn1nc(N2CCC(=O)NC2=O)c2ccc(CN3CCN(Cc4ccc(-c5cn(-c6ccc(-c7cn8nccc(C(=O)Nc9cnccc9N9CCOCC9)c8n7)cc6)nn5)nc4)CC3)cc21 [compound 24]
- adverse signs in vivo (5 mg/kg IV study and the lower IV/PO study): no adverse signs
- Kp at 4 h (female, Balb/c, mouse, brain / whole blood, intravenous, 5 mg/kg i.v., 4 hours, read-out: Brain:Blood Ratio): 0.1
- concentration at 4 h (female, Balb/c, mouse, brain, intravenous, 5 mg/kg i.v., 4 hours, read-out: Mean Brain Concentration): 68 nM
- concentration at 4 h (female, Balb/c, mouse, whole blood, intravenous, 5 mg/kg i.v., 4 hours, read-out: Mean Blood Concentration): 696 nM

From paper PMC12501029, “Discovery of a CNS active GSK3 degrader using orthogonally reactive linker screening” (Nature Communications, 2025)
